Data taken from paper PMC5909127, “Optimization of a “bump-and-hole” approach to allele-selective BET bromodomain inhibition” (Chemical Science, 2018).
pIC50: −log10 of the molar value.

Legend:
[1] = target: WT BET bromodomains (BD1 and BD2 of BRD2, BRD3 and BRD4); assay: competitive AlphaLISA (Bio-JQ1 displacement); format: binding, human; details: mean and SD of all somatic bromodomains; active enantiomer concentration
[2] = tested on: L/V BET bromodomains (BD1 and BD2 of BRD2, BRD3 and BRD4); assay: competitive AlphaLISA (Bio-JQ1 displacement); format: binding, human; details: for AlphaLISA pIC50 ± SD Δ: L/V minus WT; for AlphaLISA pIC50 ± SD L/V: mean and SD of all somatic bromodomains, active enantiomer concentration
BRD2 BD1 WT = BRD2 BD1 WT (Homo sapiens, UniProt P25440); assay: competitive AlphaLISA; format: binding
BRD2 BD1 L/V = BRD2 BD1 L/V (Homo sapiens, UniProt P25440, L110V); assay: competitive AlphaLISA; format: binding
BRD2 BD2 WT = BRD2 BD2 WT (Homo sapiens, UniProt P25440); assay: competitive AlphaLISA; format: binding
BRD3 BD1 WT = BRD3 BD1 WT (Homo sapiens, UniProt Q15059); assay: competitive AlphaLISA; format: binding
BRD3 BD1 L/V = BRD3 BD1 L/V (Homo sapiens, UniProt Q15059, L70V); assay: competitive AlphaLISA; format: binding
BRD3 BD2 L/V = BRD3 BD2 L/V (Homo sapiens, UniProt Q15059, L345V); assay: competitive AlphaLISA; format: binding
BRDT BD1 WT = BRDT BD1 WT (Homo sapiens, UniProt Q58F21); assay: competitive AlphaLISA; format: binding
BRDT BD2 WT = BRDT BD2 WT (Homo sapiens, UniProt Q58F21); assay: competitive AlphaLISA; format: binding
BRDT BD2 L/V = BRDT BD2 L/V (Homo sapiens, UniProt Q58F21, L306V); assay: competitive AlphaLISA; format: binding
in vitro = details: PAMPA, pH 7.4
Plasma Half-life = details: BALB/c, mouse, pH 7.4
Intrinsic Clearance = details: mouse liver microsomes
BRD2 BD2 L/V = BRD2 BD2 L/V (Homo sapiens, UniProt P25440, L383V); assay: competitive AlphaLISA; format: binding
BRD3 BD2 WT = BRD3 BD2 WT (Homo sapiens, UniProt Q15059); assay: competitive AlphaLISA; format: binding
BRD4 BD1 WT = BRD4 BD1 WT (Homo sapiens, UniProt O60885); assay: competitive AlphaLISA; format: binding; details: AlphaLISA pIC50 Value BRD4 BD1 WT
BRD4 BD1 L/V = BRD4 BD1 L/V (Homo sapiens, UniProt O60885, L94V); assay: competitive AlphaLISA; format: binding; details: AlphaLISA pIC50 Value BRD4 BD1 L/V
BRD4 BD2 WT = BRD4 BD2 WT (Homo sapiens, UniProt O60885); assay: competitive AlphaLISA; format: binding
BRDT BD1 L/V = BRDT BD1 L/V (Homo sapiens, UniProt Q58F21, L63V); assay: competitive AlphaLISA; format: binding
BRD4 BD2 L/V = BRD4 BD2 L/V (Homo sapiens, UniProt O60885, L387V); assay: competitive AlphaLISA; format: binding

Sequence of BRD3 BD2 L/V (Q15059 306-416 L345V limits assumed): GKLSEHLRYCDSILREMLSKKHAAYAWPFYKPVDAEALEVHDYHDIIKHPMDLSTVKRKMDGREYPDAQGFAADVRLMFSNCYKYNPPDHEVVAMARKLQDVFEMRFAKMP
Sequence of BRD2 BD1 L/V (P25440 71-176 L110V limits assumed): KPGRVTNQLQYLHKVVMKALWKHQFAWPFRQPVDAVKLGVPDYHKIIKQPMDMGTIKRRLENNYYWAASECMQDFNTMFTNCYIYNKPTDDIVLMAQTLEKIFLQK
Sequence of BRD3 BD1 WT (Q15059 24-144): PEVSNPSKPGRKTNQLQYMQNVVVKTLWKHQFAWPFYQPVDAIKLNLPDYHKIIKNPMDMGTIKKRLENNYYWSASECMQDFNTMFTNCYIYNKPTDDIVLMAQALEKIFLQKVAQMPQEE
Sequence of BRD3 BD2 WT (Q15059 306-416): as the sequence (Q15059 306-416 L345V limits assumed) above, with V40L counted along it
Sequence of BRD2 BD1 WT (P25440 71-176): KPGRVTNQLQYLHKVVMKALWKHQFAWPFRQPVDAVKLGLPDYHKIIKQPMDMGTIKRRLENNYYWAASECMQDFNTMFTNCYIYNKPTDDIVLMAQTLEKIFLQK
Sequence of BRD2 BD2 WT (P25440 344-455): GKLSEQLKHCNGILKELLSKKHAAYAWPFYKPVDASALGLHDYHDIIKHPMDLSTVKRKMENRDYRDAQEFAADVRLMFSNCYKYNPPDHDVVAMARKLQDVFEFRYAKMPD
Sequence of BRD3 BD1 L/V (Q15059 24-144 L70V limits assumed): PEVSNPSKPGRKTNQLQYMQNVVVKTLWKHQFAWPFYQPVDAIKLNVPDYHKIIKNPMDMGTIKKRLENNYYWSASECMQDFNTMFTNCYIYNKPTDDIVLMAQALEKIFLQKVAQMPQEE
Sequence of BRD2 BD2 L/V (P25440 344-455 L383V): as the sequence (P25440 344-455) above, with L40V counted along it

Row | Compound | AlphaLISA pIC50 ± SD WT [1] | AlphaLISA pIC50 ± SD Δ [2] | pIC50 (BRD2 BD1 WT) | pIC50 (BRD2 BD1 L/V) | pIC50 (BRD2 BD2 WT) | pIC50 (BRD3 BD1 WT) | pIC50 (BRD3 BD1 L/V) | pIC50 (BRD3 BD2 L/V) | pIC50 (BRDT BD1 WT) | pIC50 (BRDT BD2 WT) | pIC50 (BRDT BD2 L/V) | half-life at 50 µM (Plasma Half-life) | CL int (Intrinsic Clearance) | AlphaLISA pIC50 ± SD L/V [2] | pIC50 (BRD2 BD2 L/V) | pIC50 (BRD3 BD2 WT) | pIC50 (BRD4 BD1 WT) | pIC50 (BRD4 BD1 L/V) | pIC50 (BRD4 BD2 WT) | pIC50 (BRDT BD1 L/V) | other results
1 | COC(=O)[C@H](C)[C@@H]1N=C(c2ccc(Cl)cc2)c2cc(OC)ccc2-n2c(C)nnc21 (relative stereo) [Compound 3] | 6.2 ± 0.3 | 1.2 ± 0.2 | 5.70 | 7.20 | 6.00 | 6.60 | 7.50 | 7.50 | 5.70 | 5.90 | 7.10 | > 3 h | 0.7 ml min^–1 g^–1 | – | – | – | – | – | – | – | Papp (in vitro): 18.5 ×10⁻⁶ cm/s
2 | CCC[C@@H](C(=O)OC)[C@@H]1N=C(c2ccc(Cl)cc2)c2cc(OC)ccc2-n2c(C)nnc21 (relative stereo) [Compound 6] | 4.5 ± 0.2 | 0.6 ± 0.2 | 4.50 | 5.00 | < 4.00 | 4.70 | 5.20 | 5.00 | 4.50 | – | – | > 3 h | 5.2 ml min^–1 g^–1 | 5.0 ± 0.1 | 5.00 | 4.70 | 4.60 | 5.10 | 4.20 | 4.60 | selectivity (L/V over WT, AlphaLISA) [2]: less than 10 fold
3 | CCN(CC)C(=O)[C@H](C)[C@@H]1N=C(c2ccc(Cl)cc2)c2cc(OC)ccc2-n2c(C)nnc21 (relative stereo) [Compound 19] | 4.9 ± 0.2 | 1.2 ± 0.2 | – | 6.00 | 4.60 | 5.30 | 6.40 | 6.30 | 4.40 | 4.60 | 5.50 | > 3 h | >50 ml min^–1 g^–1 | 6.1 ± 0.2 | 6.00 | – | – | 5.90 | 4.60 | 5.40 | pIC50 (BRD4 BD2 L/V): 5.90
4 | CC[C@@H](C(=O)N(CC)CC)[C@@H]1N=C(c2ccc(Cl)cc2)c2cc(OC)ccc2-n2c(C)nnc21 (relative stereo) [Compound 20] | 4.6 ± 0.1 | 1.2 ± 0.2 | 4.50 | 5.70 | 4.80 | 4.70 | 6.30 | 5.80 | 4.40 | 4.40 | 5.20 | > 3 h | >50 ml min^–1 g^–1 | 5.8 ± 0.2 | 5.80 | 4.60 | 4.60 | 5.90 | 4.50 | 5.20 | pIC50 (BRD4 BD2 L/V): 5.50
5 | CCNC(=O)[C@H](CC)[C@@H]1N=C(c2ccc(Cl)cc2)c2ccc(OC)cc2-n2c(C)nnc21 (relative stereo) [Compound 22] | <4.0 | >1.2 | < 4.00 | 5.20 | < 4.00 | 4.20 | 5.50 | 5.40 | < 4.00 | < 4.00 | 4.70 | > 3 h | 2.1 ml min^–1 g^–1 | 5.2 ± 0.2 | 5.10 | < 4.00 | 4.20 | 5.10 | < 4.00 | 4.70 | Papp (in vitro): 5.9 ×10⁻⁶ cm/s
6 | Cc1sc2c(c1C)C(c1ccc(Cl)cc1)=N[C@@H](CC(=O)OC(C)(C)C)c1nnc(C)n1-2 [(+)JQ1, reference compound] | – | –0.1 ± 0.1 | – | – | – | – | – | – | – | – | – | > 3 h | 7.5 ml min^–1 g^–1 | – | – | – | – | – | – | – | –
